# In patent US7091033B2, “Array of toxicologically relevant canine genes and uses thereof” (Phase-1 Molecular Toxicology, Inc., priority 2000, dated 2006):
# Assays:
# [1] = tested on: canine genes in a canine array (Canine kidney); experiment: Canine array fold induction of canine genes in kidney of dogs dosed with an agent (Table 11); type: in vivo; conditions: Canine kidney, 0.8 mg/kg, 2 days
# Excerpt: Table 11 depicts the fold induction for canine genes in a canine array.
# [2] = tested on: canine genes differentially expressed in organs (liver, spleen, kidney, testes, heart, thymus); experiment: Transcriptome profiling / differential display of tissues from canines exposed to an agent versus vehicle (reverse transcription, PCR, reamplification of bands, sequencing); type: in vivo
# [3] = Band # CTP60B, Homo sapiens RNA bindii XM_016120
# [4] = Band # CTP65A, Pig mRNA for endoplasm X16951
# [5] = Band # CTP74A, No significant match
# [6] = Band # CTP75C, No significant match
# [7] = Band # CTP85D, Homo sapiens Rho-assoc XM_008814
# [8] = Band # CTP122I, Human mRNA for KIAA0(D26067)
# [9] = Band # CTP185C, No significant match
# [10] = Band # CTP206A, Homo sapiens fatty acid c NM_013402
smiles,measurement,setting,value
C[C@@H]1[C@H](O)[C@@H](C)/C=C/C=C/C=C/C=C/C=C/C=C/C=C/[C@H](O[C@@H]2O[C@H](C)[C@@H](O)[C@H](N)[C@@H]2O)C[C@@H]2O[C@](O)(C[C@@H](O)C[C@@H](O)[C@H](O)CC[C@@H](O)C[C@@H](O)CC(=O)O[C@H]1C)C[C@H](O)[C@H]2C(=O)O [Amphoteracin-B],BR-cadherin fold induction,[1],1.0
same,Beta-glucuronidase fold induction,[1],1.1
same,CD40 ligand fold induction,[1],2.2
same,Catalase fold induction,[1],1.6
same,Caveolin-1 fold induction,[1],1.2
same,Caveolin-2 fold induction,[1],2.1
same,Cytochrome P450 2B fold induction,[1],1.1
same,Cytochrome P450 2C41 fold induction,[1],1.2
same,Cytochrome P450 2D fold induction,[1],1.6
same,Cytochrome P450 3A fold induction,[1],1.2
same,GRP94 fold induction,[1],1.2
same,Glucose transporter fold induction,[1],1.3
same,Glucose-regulated protein 94 #1 fold induction,[1],1.2
same,Glucose-regulated protein 94 #2 fold induction,[1],1.1
same,Glutathione S-transferase alpha subunit fold induction,[1],1.8
same,Interleukin-8 fold induction,[1],1.2
same,Interleukin-10 fold induction,[1],5.9
same,Keratinocyte growth factor fold induction,[1],1.6
same,Mek5 fold induction,[1],1.2
same,Metallothionein 1 fold induction,[1],3.1
same,Paraoxonase2 (PON2) fold induction,[1],2.1
same,Phase-1 CCT-11 fold induction,[1],1.1
same,Phase-1 CCT-59 fold induction,[1],1.1
same,Phase-1 CCT-60 fold induction,[1],1.3
same,Phase-1 CCT-63 fold induction,[1],1.1
same,Phase-1 CCT-65 fold induction,[1],1.1
same,Phase-1 CCT-66 fold induction,[1],1.1
same,Phase-1 CCT-68 fold induction,[1],1.1
same,Phase-1 CCT-72 fold induction,[1],1.1
same,Phase-1 CCT-73 fold induction,[1],1.1
same,Phase-1 CCT-74 fold induction,[1],1.1
same,Phase-1 CCT-78 fold induction,[1],1.1
same,Phase-1 CCT-84 fold induction,[1],1.5
same,Phase-1 CCT-87 fold induction,[1],1.0
same,Phase-1 CCT-91 fold induction,[1],1.5
same,Phase-1 CCT-92 fold induction,[1],1.4
same,Phase-1 CCT-94 fold induction,[1],1.1
same,Phenol sulfotransferase fold induction,[1],5.3
same,Prostaglandin D synthase fold induction,[1],1.4
same,Rab2 fold induction,[1],1.1
same,Rab5 fold induction,[1],1.1
same,Rab7 fold induction,[1],1.1
same,SHB (Src homology 2 protein) fold induction,[1],1.2
same,Tumor necrosis factor-alpha fold induction,[1],3.5
same,UV excision repair protein RAD 23 (XP-C) fold induction,[1],1.1
same,Ubiquitin fold induction,[1],1.3
same,ZAP36/annexin IV fold induction,[1],1.1
same,c-erb B-2 fold induction,[1],1.2
same,p53 fold induction,[1],1.2
N.N.O=C([O-])C1(C(=O)[O-])CCC1.[Pt+2] [carboplatin],Expression Pattern,"[2]; Band # CTP28D, Homo sapiens upstream INM_014517",repressed in carboplatin
same,Expression Pattern,"[2]; Band # CTP30E, Homo sapiens BAC clone AC003083",repressed in carboplatin
same,Expression Pattern,"[2]; Band # CTP58A, No significant match",repressed with carboplatin
same,Expression Pattern,[2]; [3],repressed with carbo and trans platin
same,Expression Pattern,[2]; [4],repressed with carbo and trans platin
same,Expression Pattern,"[2]; Band # CTP71A, Canis familiaris caveolin- U47060",induced with carboplatin
same,Expression Pattern,[2]; [5],"repressed with carbo, trans and cisplatin"
same,Expression Pattern,[2]; [6],"repressed with carbo, trans and cisplatin"
same,Expression Pattern,[2]; [7],"repressed with carbo, trans and cisplatin"
same,Expression Pattern,[2]; [8],repressed with carbo and transplatin
same,Expression Pattern,"[2]; Band # CTP178B, Homo sapiens mRNA for AB040957",induced with carboplatin
same,Expression Pattern,"[2]; Band # CTP179K, No significant match",induced with carboplatin
same,Expression Pattern,[2]; [9],induced with carbo and trans platin
same,Expression Pattern,"[2]; Band # CTP197A, No significant match",induced with carboplatin
same,Expression Pattern,"[2]; Band # CTP201B, Homo sapiens, exostoses BC001174",induced with carboplatin
same,Expression Pattern,"[2]; Band # CTP202C, No significant match",induced with carboplatin
same,Expression Pattern,"[2]; Band # CTP205D, Homo sapiens similar to XM_011187",induced with carboplatin
same,Expression Pattern,[2]; [10],repressed with carbo and transplatin
same,Expression Pattern,"[2]; dog, in vivo",repressed with carbo and trans platin
N.N.[Cl][Pt+2][Cl] [transplatin],Expression Pattern,[2]; [3],repressed with carbo and trans platin
same,Expression Pattern,[2]; [4],repressed with carbo and trans platin
same,Expression Pattern,[2]; [5],"repressed with carbo, trans and cisplatin"
same,Expression Pattern,[2]; [6],"repressed with carbo, trans and cisplatin"
same,Expression Pattern,[2]; [7],"repressed with carbo, trans and cisplatin"
same,Expression Pattern,[2]; [8],repressed with carbo and transplatin
same,Expression Pattern,"[2]; Band # CTP129A, Homo sapiens, Similar to BC007583",induced with transplatin
same,Expression Pattern,[2]; [9],induced with carbo and trans platin
same,Expression Pattern,[2]; [10],repressed with carbo and transplatin
same,Expression Pattern,"[2]; Band # CTP208B, No significant match",induced with transplatin
same,Expression Pattern,"[2]; dog, in vivo",repressed with carbo and trans platin
COc1cc([C@@H]2c3cc4c(cc3[C@@H](O[C@@H]3O[C@@H]5CO[C@@H](C)O[C@H]5[C@H](O)[C@H]3O)[C@H]3COC(=O)[C@H]23)OCO4)cc(OC)c1O [Etoposide],Expression Pattern,"[2]; Band # CTP1D, No significant match","upregulated with Etoposide, caffeine"
same,Expression Pattern,"[2]; Band # CTP1G, No significant match","upregulated with Etoposide, caffeine"
same,Expression Pattern,"[2]; Band # CTP7B, No significant match",upregulated in Etoposide treated
same,Expression Pattern,"[2]; Band # CTP8A, No significant match",repressed in Etoposide treated
same,Expression Pattern,"[2]; Band # CTP8C, Human DNA sequence fn HSJ734P14",repressed in Etoposide treated
same,Expression Pattern,"[2]; Band # CTP10Y, Canis familiaris mitochon CFU96639",upregulated in Etoposide treated
same,Expression Pattern,"[2]; Band # CTP11A, cyclin-dependent kinase i BC001935",upregulated in Etoposide treated
same,Expression Pattern,"[2]; Band # CTP16B, Homo sapiens cDNA FLJAK000548",repressed in Etoposide treated
same,Expression Pattern,"[2]; Band # CTP17G, No significant match",repressed in Etoposide treated
same,Expression Pattern,"[2]; Band # CTP18B, No significant match",upregulated in Etoposide treated
same,Expression Pattern,"[2]; Band # CTP19F, Homo sapiens chromosor AC008651",upregulated in Etoposide treated
same,Expression Pattern,"[2]; Band # CTP34A, Homo sapiens ribosomal NM_001032",repressed in Etoposide
